Experimental data reported in EP0832650A2 (ELI LILLY AND COMPANY, priority 1996, dated 1998).
Where a name gives a salt, the structure may show the parent alone.

Tested on: neuronal protein extravasation
Test: Neuronal protein extravasation in dura after electrical stimulation of the trigeminal ganglion
Type: in vivo, Harlan Sprague-Dawley rats or guinea pigs
Conditions: 10 minutes before trigeminal ganglion stimulation, dose inhibiting extravasation by 50%, approximated from dose-response curve, species (rat or guinea pig) not given
Description: Harlan Sprague-Dawley rats (250-350 g) or guinea pigs from Charles River Laboratories (250-350 g) were anesthetized with sodium pentobarbital intraperitoneally (65 mg/kg or 45 mg/kg respectively) and placed in a stereotaxic frame (David Kopf Instruments) with the incisor bar set at -3.5 mm for rats or -4.0 mm for guinea pigs. Following a midline sagital scalp incision, two pairs of bilateral holes were drilled through the skull (6 mm posteriorly, 2.0 and 4.0 mm laterally in rats; 4 mm posteriorly and 3.2 and 5.2 mm laterally in guinea pigs, all coordinates referenced to bregma) . Pairs of stainless steel stimulating electrodes, insulated except at the tips, (Rhodes Medical Systems, Inc.) were lowered through the holes in both hemispheres to a depth of 9 mm (rats) or 10.5 mm (guinea pigs) from dura.
The femoral vein was exposed and a dose of the test compound was injected intravenously (1 mL/kg). Approximately 7 minutes later, a 50 mg/kg dose of Evans Blue, a fluorescent dye, was also injected intravenously. The Evans Blue complexed with proteins in the blood and functioned as a marker for protein extravasation. Exactly 10 minutes post-injection of the test compound, the left trigeminal ganglion was stimulated for 3 minutes at a current intensity of 1.0 mA (5 Hz, 4 msec duration) with a Model 273 potentiostat/ galvanostat (EG&G Princeton Applied Research).
Fifteen minutes following stimulation, the animals were killed by exsanguination with 40 mL of saline. The top of the skull was removed to facilitate the collection of the dural membranes. The membrane samples were removed from both hemispheres, rinsed with water, and spread flat on microscopic slides. Once dried, the tissues were coverslipped with a 70% glycerol/water solution.
A fluorescence microscope (Zeiss) equipped with a grating monochromator and a spectrophotometer was used to quantify the amount of Evans Blue dye in each sample. An excitation wavelength of approximately 535 nm was utilized and the emission intensity at 600 nm was determined. The microscope was equipped with a motorized stage and also interfaced with a personal computer. This facilitated the computer-controlled movement of the stage with fluorescence measurements at 25 points (500 µm steps) on each dural sample. The mean and standard deviation of the measurements was determined by the computer.
The extravasation induced by the electrical stimulation of the trigeminal ganglion was an ipsilateral effect (i.e. occurs only on the side of the dura in which the trigeminal ganglion was stimulated). This allows the other (unstimulated) half of the dura to be used as a control. The ratio of the amount of extravasation in the dura from the stimulated side compared to the unstimulated side dura was calculated. Saline controls yielded a ratio of approximately 2.0 in rats and 1.8 in guinea pigs. […]

Point of comparison: `CN(C)C1CCc2[nH]c3ccc(O)cc3c2C1` (centres unmarked) [Compound V, 6-hydroxy-3-dimethylamino-1,2,3,4-tetrahydrocarbazole], “Inhibition of Protein Extravasation i.v. ID50” value 8.7e-09 mmol/kg. Against it:
- CNS(=O)(=O)Cc1ccc2[nH]cc(CCN(C)C)c2c1.O=C(O)CCC(=O)O [Compound I, 3-[2-(dimethylamino)ethyl]-N-methyl-1H-indole-5-methanesulfonamide butane-1,4-dioate (1:1)] — higher, 2.6e-08 mmol/kg
- Cn1cc(CCN2CCC(c3c[nH]c4ccc(F)cc34)CC2)cn1 [Compound II, 5-fluoro-3-<1-<2-<1-methyl-1H-pyrazol-4-yl>ethyl>-4-piperidinyl>-1H-indole hydrochloride] — lower, 8.6e-10 mmol/kg
- O=C(O)C(=O)O.Oc1ccc2[nH]cc(C3CCNCC3)c2c1 [Compound III, 5-hydroxy-3-(4-piperidinyl)-1H-indole oxalate] — higher, 8.9e-09 mmol/kg
- CCN(CC)C1CCc2cccc(Cl)c2C1.Cl (centres unmarked) [Compound IV, 8-chloro-2-diethylamino-1,2,3,4-tetrahydronaphthalene hydrochloride] — higher, 1.2e-07 mmol/kg
